Source: patent US4202967A, “N,N-pentamethylene derivatives of daunomycin and adriamycin” (SRI International, priority 1978, dated 1980)
pIC50: −log10 of the molar value. Where a name gives a salt, the structure may show the parent alone. Read-outs that look alike come from different tables or passages of the source.

Legend:
[1] = system: DNA synthesis in L1210 cells; experiment: Inhibition of DNA synthesis (incorporation of tritiated 3H-thymidine) in cultured L1210 cells; type: cell-based; details: Mus musculus
Procedure: (§1) Also presented in the table are the results of in vitro tests using cultured L1210 cells in which the activity of each chemical enumerated in the following table is presented in relation to its potency as an inhibitor of nucleic acid synthesis. Data for daunomycin and adriamycin are also included in the table for the sake of comparison. More specifically, the inhibition of the synthesis of DNA and RNA by each compound was measured as a function of its activity in inhibiting incorporation of tritiated ^3 H-thymidine or ^3 H-uridine into DNA and RNA, respectively. ED50 represents the concentration, in micromolar units, which inhibits incorporation of 50% of tritiated ^3 H-thymidine or ^3 H-uridine into the DNA and RNA of the test cells.
(§2) ^a ΔTm and Ed50 values were determined by the method of G.
(§3) Tong, W. W. Lee, D. R. Black, and D. W. Henry, J. Med. Chem., 19, 395
(§4) (1976), except that the drugs were initially dissolved in a volume of DMS
(§5) the assay medium. This modification greatly aided solubilization and did
(§6) not affect assay results, according to extensive control experiments.

[2] = system: P388 lymphocytic leukemia; experiment: Antitumor activity in mice (P388, qd 5,9,13); type: in vivo; details: ip; for T/C (P388, qd 5,9,13): at optimal dose, days 5, 9, 13, ratio of average survival times treated/untreated, active if T/C ≥ 120; for Opt. Dose (P388, qd 5,9,13): days 5, 9, 13
Procedure: (§7) As indicated above, the compounds of the present invention have improved antitumor activity. This is evidenced by the data given below. In one operation, conducted in accordance with Protocol 1200 set forth in Cancer Chemotherapy Reports, National Cancer Institute, Vol. 3, No. 2, Part 3, September 1972, healthy mice were inoculated i.p. with Limphocytic Leukemia P-388 ascitic fluid. The inoculated mice were then treated i.p. for the succeeding 9 day period with varying amounts of the test chemicals of Example 2 while others of the mice were similarly inoculated with adrimycin hydrochloride and with daunomycin hydrochloride, the dosage pattern being set forth in the table given below. The average survival times of the treated mice was then determined, as was that of the control mice, which were inoculated with the ascitic fluid but given no treatment with the test chemicals. Presented in the following table under the T/C column headings are data obtained by dividing the survival time of the treated mice with that of the control mice, the quotient so obtained being multiplied by 100.
(§8) ^b Assays arranged through Drug Research and Development Program,
(§9) Division of Cancer Treatment, National Cancer Institute. BDF or CDF mice
(§10) are injected ip with […] P388 lymphocytic leukemia cells on Day 0
(§11) and are treated ip on Days 1-9 or days 5, 9, 13 with the specified drug
(§12) dose. For detailed protocols see R. I. Geran, N. H. Greenberg, M. M.
(§13) MacDonald, A. M. Schumacher, and B. J. Abbott, Cancer Chemother. Rep.,
(§14) ^c Ratio of average survival times of treated mice to untreated
(§15) controls in percent. The average survival time of untreated controls is
(§16) approximately 11 days. Activity is defined as values of T/C ≥ 120
(§17) in the qd 5, 9, 13 protocol and T/C ≥ 125 in the qd 1-9 protocol.

[3] = system: P388 lymphocytic leukemia; experiment: Antitumor activity in mice (P388, qd 1-9); type: in vivo; details: ip; for T/C (P388, qd 1-9): at optimal dose, days 1-9, ratio of average survival times treated/untreated, active if T/C ≥ 125; for Opt. Dose (P388, qd 1-9): days 1-9
Procedure: as §7, §8, §9, §10, §11, §12, §13, §14, §15, §16, §17

[4] = system: RNA synthesis in L1210 cells; experiment: Inhibition of RNA synthesis (incorporation of tritiated 3H-uridine) in cultured L1210 cells; type: cell-based; details: for pIC50: Mus musculus; for Nucleic Acid Syn Inhibn, ED50 ratio DNA/RNA: ED50 DNA divided by ED50 RNA
Procedure: as §1, §2, §3, §4, §5, §6

ΔTm = type: binding; details: drugs initially dissolved in DMSO; final DMSO 5%
Procedure: as §2, §3, §4, §5, §6

[5] = L1210, read-out: Nucleic Acid Syn Inhibn, ED50 DNA
[6] = L1210, read-out: Nucleic Acid Syn Inhibn, ED50 RNA

Compound | pIC50 [1, 5] | T/C (P388, qd 5,9,13) [2] | Opt. Dose (P388, qd 5,9,13) [2] | T/C (P388, qd 1-9) [3] | Opt. Dose (P388, qd 1-9) [3] | pIC50 [4, 6] | Nucleic Acid Syn Inhibn, ED50 ratio DNA/RNA ([4]; L1210 cells) | ΔTm (ΔTm) | pIC50 ([1]; L1210 cells, 3H-thymidine incorporation, 50% inhibition, final DMSO 1%, read-out: Nucleic Acid Syn Inhibn, ED50 DNA) | pIC50 ([4]; L1210 cells, 3H-uridine incorporation, 50% inhibition, final DMSO 1%, read-out: Nucleic Acid Syn Inhibn, ED50 RNA)
COc1cccc2c1C(=O)c1c(O)c3c(c(O)c1C2=O)C[C@@](O)(C(C)=O)C[C@@H]3O[C@H]1C[C@H](N)[C@H](O)[C@H](C)O1 [Daunomycin hydrochloride] | 6.18 | 132% | 8 mg/kg | 160% | 0.78 mg/kg | 6.48 | – | – | – | –
COc1cccc2c1C(=O)c1c(O)c3c(c(O)c1C2=O)C[C@@](O)(C(O)CO)C[C@@H]3O[C@H]1C[C@H](N2CCCCC2)[C@H](O)[C@H](C)O1 (stereo partly drawn) [N,N-Pentamethylene-13-dihydroadriamycin] | 6.14 | 143% | 18 mg/kg | 157% | 1.56 mg/kg | 7.00 | 7.2 | 12.5 °C | – | –
COc1cccc2c1C(=O)c1c(O)c3c(c(O)c1C2=O)C[C@@](O)(C(=O)CO)C[C@@H]3O[C@H]1C[C@H](N2CCCCC2)[C@H](O)[C@H](C)O1 [N,N-Pentamethyleneadriamycin] | – | 155% | 9.4 mg/kg | 190% | 3.13 mg/kg | – | 17.5 | 15.4 °C | 6.15 | 7.40
COc1cccc2c1C(=O)c1c(O)c3c(c(O)c1C2=O)C[C@@](O)(C(=O)CO)C[C@@H]3O[C@H]1C[C@H](N)[C@H](O)[C@H](C)O1 [Adriamycin hydrochloride] | 5.82 | 159% | 8 mg/kg | 197% | 0.78 mg/kg | 6.24 | 2.6 | 13.4 °C | – | –
